# Source: US20240092758A1, “IMIDAZOLO INDAZOLE COMPOUNDS AS JAK INHIBITORS” (Theravance Biopharma R&D IP, LLC, priority 2021, published 2024)
# Key:
# JAK3 = JAK3 (Homo sapiens (Human), UniProt P52333); assay: Biochemical JAK kinase assay (LanthaScreen), JAK3; conditions: read-out: JAK3 pKi (converted)
# Outline: (§1)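 LanthaScreen format: phospho-STAT1 (pTyr701) detected with 2 nM Tb antibody after 10 mM EDTA quench. Kinase step used Km-level ATP and 200 nM STAT1 peptide, 1 h at ambient after 1 h pre-incubation. Inhibition fitted to IC50, reported as pKi.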
# [1] = Pharmacokinetics in plasma and lung in mouse after oral aspiration administration; type: in vivo; conditions: male CD1 mice; for Lung Tissue AUC(0-24) / AUC(0-t): 0.2 mg/mL, two 25 μL increments; for Lung Tissue:Plasma AUC ratio: lung AUC to plasma AUC; for AUC(0-t): mouse, inhaled or intranasal, 0.01 mg/mouse, plasma, read-out: Plasma AUC(0-24)
# Procedure: Plasma and lung concentrations of test compounds were quantified and pharmacokinetic parameters were calculated in the following manner. Male CD1 mice from Charles River Laboratories were used in the pharmacokinetic studies. Test compounds were individually formulated in 20% propylene glycol in pH 4 citrate buffer at a concentration of 0.2 mg/mL. Test compounds were administered in two, 25 μL increments introduced into the trachea of each mouse by oral aspiration using a calibrated pipette once the animal was anesthetized using isoflurane. Blood samples were collected as terminal collections via cardiac puncture at 0.167, 1, 4, 8, and 24 hr post-dosing. Following […] with CO2, a direct cardiac puncture was performed while avoiding puncturing the lung and blood was immediately transferred into K2EDTA tubes and placed on wet ice. Blood samples were centrifuged (Eppendorf centrifuge, 5804R) for 4 minutes at approximately 12,000 rpm at 4° C. to collect plasma. Intact lungs were also excised from these mice using the same timepoints (0.167, 1, 4, 8, and 24 hr). Lungs were washed with sterile water to remove any blood residue and were patted dry, weighed, and homogenized in 0.1% formic acid in water at a dilution of 1:3 (lung:water, weight/volume). Plasma and lung concentrations of test compounds were determined by LC-MS/MS analysis against analytical standards constructed into a standard curve in the test matrix. The pharmacokinetic parameters of test compounds were determined by non-compartmental analysis. For concentrations below the limit of quantification, zero was used for mean calculations. Mean values were not reported if more than 50% of the samples were below the limit of quantification at a timepoint, or if more than 50% of a calculated pharmacokinetic parameter was not reportable. The area under the concentration-time curve extrapolated to infinity (AUC(0-inf)) was calculated as follows: AUC(0-inf)=AUC(0-t)+Clast/k, where AUC(0-t) is the area under the concentration-time curve from the time of dosing to the last measurable concentration calculated by the linear trapezoidal rule, Clast is the last measurable concentration, and k is the first order rate constant associated with the terminal elimination phase, estimated by linear regression of time versus log concentration. The lung-to-plasma AUC ratio was determined as the ratio of the lung AUC(0-inf) in μg*hr/g to the plasma AUC(0-inf) in μg*hr/mL.
# [2] = test system: IL-13 induced STAT6 phosphorylation in BEAS-2B human lung epithelial cells; assay: Cellular JAKI potency assay (BEAS-2B); type: cell-based; conditions: Homo sapiens, BEAS-2B, BEAS-2B cells, read-out: BEAS2B pIC50 (converted)
# Outline: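 AlphaLISA SureFire detection of Tyr641 pSTAT6 in lysates gave IC50s (4-parameter fit, expressed as pIC50). Cells: human BEAS-2B, exposed 1 h at 37 °C to compound dose series at 0.1% DMSO, then 30 min to IL-13 added at 80 ng/mL in HEPES-buffered HBSS with BSA.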
# TYK2 = TYK2 (Homo sapiens (Human), UniProt P29597); assay: Biochemical JAK kinase assay (LanthaScreen), Tyk2; conditions: read-out: Tyk2 pKi (converted)
# Outline: as §1
# JAK2 = JAK2 (Homo sapiens (Human), UniProt O60674); assay: Biochemical JAK kinase assay (LanthaScreen), JAK2; conditions: for Ki: read-out: JAK2 pKi (converted)
# Outline: as §1
# JAK1 = JAK1 (Homo sapiens (Human), UniProt P23458); assay: Biochemical JAK kinase assay (LanthaScreen), JAK1; conditions: for Ki: read-out: JAK1 pKi (converted)
# Outline: as §1
# Chain of JAK1 (P23458 whole entry): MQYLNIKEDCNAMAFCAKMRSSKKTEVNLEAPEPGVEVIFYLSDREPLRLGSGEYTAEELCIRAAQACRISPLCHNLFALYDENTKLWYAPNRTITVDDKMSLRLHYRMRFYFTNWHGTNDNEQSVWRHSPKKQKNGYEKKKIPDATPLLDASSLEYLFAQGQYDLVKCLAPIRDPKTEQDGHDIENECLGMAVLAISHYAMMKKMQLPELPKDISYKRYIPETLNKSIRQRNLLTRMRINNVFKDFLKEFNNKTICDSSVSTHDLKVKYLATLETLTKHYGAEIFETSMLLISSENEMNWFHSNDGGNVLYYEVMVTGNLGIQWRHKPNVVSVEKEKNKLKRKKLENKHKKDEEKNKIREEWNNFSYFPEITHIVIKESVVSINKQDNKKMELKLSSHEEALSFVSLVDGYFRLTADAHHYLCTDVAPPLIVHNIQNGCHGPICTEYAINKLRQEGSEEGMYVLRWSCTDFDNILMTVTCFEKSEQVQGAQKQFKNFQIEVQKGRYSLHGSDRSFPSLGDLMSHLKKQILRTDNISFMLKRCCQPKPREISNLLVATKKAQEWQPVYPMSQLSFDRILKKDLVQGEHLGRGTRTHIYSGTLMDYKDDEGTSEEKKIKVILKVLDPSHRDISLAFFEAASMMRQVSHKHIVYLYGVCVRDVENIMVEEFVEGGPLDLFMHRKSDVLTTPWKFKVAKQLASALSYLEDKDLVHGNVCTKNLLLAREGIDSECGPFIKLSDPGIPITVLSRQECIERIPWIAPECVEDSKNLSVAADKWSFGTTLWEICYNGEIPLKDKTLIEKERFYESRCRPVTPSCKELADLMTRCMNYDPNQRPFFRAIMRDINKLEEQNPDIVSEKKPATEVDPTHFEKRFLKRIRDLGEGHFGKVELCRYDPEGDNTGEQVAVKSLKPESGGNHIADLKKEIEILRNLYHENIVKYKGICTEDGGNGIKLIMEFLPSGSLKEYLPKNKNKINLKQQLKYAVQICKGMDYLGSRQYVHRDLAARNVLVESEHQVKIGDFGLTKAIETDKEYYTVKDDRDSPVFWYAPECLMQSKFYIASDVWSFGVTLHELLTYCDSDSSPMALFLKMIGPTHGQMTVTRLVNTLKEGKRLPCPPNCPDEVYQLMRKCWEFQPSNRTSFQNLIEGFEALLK
# Chain of JAK3 (P52333 whole entry): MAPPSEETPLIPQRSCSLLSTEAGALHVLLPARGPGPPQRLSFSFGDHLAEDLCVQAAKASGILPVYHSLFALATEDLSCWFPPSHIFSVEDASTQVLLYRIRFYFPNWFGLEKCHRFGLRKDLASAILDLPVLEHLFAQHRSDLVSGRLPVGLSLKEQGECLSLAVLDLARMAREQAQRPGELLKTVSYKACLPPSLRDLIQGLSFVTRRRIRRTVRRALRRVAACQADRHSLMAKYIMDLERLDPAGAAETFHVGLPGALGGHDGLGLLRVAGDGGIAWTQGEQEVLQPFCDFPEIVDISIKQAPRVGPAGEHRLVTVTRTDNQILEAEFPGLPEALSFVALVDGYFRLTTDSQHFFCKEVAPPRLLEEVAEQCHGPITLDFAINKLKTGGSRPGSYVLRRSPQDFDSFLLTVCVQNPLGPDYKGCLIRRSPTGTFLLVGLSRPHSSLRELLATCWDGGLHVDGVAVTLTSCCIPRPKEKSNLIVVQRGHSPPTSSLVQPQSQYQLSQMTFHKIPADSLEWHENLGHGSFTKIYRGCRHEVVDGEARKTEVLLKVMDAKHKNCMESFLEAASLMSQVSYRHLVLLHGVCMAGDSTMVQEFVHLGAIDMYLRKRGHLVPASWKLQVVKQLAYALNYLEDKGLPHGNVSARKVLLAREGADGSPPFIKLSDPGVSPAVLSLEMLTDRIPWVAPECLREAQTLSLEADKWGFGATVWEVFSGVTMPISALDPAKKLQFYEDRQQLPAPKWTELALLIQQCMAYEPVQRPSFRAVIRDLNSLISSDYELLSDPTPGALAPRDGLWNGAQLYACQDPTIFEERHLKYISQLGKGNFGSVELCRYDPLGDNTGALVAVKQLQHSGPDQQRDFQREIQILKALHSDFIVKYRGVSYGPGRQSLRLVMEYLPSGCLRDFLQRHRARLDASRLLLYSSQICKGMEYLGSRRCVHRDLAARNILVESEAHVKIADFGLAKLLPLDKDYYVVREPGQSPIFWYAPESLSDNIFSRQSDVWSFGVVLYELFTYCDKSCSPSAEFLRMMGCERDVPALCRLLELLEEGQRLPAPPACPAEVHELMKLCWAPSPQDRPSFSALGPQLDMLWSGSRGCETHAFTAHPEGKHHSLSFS
# Chain of JAK2 (O60674 whole entry): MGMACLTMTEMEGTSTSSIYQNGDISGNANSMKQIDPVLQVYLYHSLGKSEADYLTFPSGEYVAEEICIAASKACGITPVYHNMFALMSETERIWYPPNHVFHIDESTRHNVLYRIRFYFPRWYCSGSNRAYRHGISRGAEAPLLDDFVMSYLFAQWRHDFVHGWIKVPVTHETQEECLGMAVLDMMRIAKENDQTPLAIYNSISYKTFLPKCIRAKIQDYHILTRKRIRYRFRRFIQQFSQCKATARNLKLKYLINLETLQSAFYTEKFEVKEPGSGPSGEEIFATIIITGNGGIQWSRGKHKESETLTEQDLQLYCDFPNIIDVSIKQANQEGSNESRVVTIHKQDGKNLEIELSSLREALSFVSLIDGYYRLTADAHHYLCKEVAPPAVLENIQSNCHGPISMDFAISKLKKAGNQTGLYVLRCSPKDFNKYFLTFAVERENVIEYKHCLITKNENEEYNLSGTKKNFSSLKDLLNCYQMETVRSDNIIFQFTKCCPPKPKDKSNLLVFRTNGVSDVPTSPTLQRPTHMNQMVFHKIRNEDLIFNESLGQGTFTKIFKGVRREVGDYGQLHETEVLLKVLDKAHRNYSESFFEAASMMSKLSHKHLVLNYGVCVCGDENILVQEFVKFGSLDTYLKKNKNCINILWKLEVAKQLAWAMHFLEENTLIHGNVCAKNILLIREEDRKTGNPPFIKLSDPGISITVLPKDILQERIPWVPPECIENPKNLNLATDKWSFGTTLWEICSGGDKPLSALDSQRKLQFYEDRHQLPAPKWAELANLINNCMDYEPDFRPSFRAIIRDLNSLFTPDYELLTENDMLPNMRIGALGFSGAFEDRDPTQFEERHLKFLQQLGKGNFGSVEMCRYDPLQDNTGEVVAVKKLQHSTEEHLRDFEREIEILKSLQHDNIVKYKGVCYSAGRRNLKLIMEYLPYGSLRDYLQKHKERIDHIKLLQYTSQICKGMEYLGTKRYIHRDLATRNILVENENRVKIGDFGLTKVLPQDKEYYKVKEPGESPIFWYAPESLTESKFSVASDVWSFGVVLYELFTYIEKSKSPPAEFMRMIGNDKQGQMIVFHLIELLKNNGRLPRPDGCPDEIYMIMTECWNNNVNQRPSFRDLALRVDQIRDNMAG
# Chain of TYK2 (P29597 whole entry): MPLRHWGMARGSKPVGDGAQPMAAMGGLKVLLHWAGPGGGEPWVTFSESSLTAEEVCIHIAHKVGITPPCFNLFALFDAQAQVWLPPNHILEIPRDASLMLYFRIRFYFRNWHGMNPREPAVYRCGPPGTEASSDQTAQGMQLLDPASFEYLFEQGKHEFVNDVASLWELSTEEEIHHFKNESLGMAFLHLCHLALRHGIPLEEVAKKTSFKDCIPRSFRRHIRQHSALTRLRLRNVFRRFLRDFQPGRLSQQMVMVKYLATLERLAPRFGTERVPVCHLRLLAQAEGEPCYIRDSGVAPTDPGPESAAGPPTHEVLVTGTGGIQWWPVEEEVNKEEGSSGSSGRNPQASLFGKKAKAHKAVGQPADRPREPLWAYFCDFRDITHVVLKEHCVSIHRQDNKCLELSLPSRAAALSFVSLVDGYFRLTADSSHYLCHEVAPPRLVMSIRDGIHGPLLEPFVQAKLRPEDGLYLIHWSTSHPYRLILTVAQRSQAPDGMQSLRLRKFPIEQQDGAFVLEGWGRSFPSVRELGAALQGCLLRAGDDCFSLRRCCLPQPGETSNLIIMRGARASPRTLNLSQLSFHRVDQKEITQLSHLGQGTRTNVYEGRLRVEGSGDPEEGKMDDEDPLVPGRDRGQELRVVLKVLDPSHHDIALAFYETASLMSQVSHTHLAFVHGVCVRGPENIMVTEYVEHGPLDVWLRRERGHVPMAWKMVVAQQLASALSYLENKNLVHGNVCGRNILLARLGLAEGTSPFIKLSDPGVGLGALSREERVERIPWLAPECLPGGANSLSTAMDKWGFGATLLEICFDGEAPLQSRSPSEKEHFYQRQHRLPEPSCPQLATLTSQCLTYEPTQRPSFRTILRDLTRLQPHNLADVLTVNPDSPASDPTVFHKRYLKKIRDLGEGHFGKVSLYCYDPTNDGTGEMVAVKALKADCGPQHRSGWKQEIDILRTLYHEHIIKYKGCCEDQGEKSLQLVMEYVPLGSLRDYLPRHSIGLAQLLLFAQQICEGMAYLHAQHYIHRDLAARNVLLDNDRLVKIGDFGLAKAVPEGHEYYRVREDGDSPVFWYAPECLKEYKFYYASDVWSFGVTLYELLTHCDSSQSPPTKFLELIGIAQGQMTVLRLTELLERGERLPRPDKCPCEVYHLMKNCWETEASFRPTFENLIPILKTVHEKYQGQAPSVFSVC
Structure (SMILES),Ki (JAK3),Lung Tissue AUC(0-24) [1],Lung Tissue:Plasma AUC ratio [1],AUC(0-t) [1],IC50 [2],Ki (TYK2),JAK2 pKi (JAK2),Ki (JAK1),Ki (JAK2),JAK1 pKi (JAK1)
"CCc1cc(O)ccc1-c1ccc2c(-c3nc(C4=CC5COCC(C4)N5)c[nH]3)n[nH]c2c1 (centres unmarked) [Compound 7, 4-(3-(4-(3-oxa-9-azabicyclo[3.3.1]non-6-en-7-yl)-1H-imidazol-2-yl)-1H-indazol-6-yl)-3-ethylphenol]",0.1 to 1 nM,B (B denotes a value between 50 and 100),C (C denotes a ratio between 100 and 200),< 500 ng·h/mL,10 to 31.6 nM,1 to 10 nM,A (A represents a pKi value ≥10 (Ki≤0.1 nM)),0.1 to 1 nM,–,–
"CCc1cc(O)ccc1-c1ccc2c(-c3nc(C4=CCCNC4)c[nH]3)n[nH]c2c1F [Compound 6, 3-ethyl-4-(7-fluoro-3-(4-(1,2,5,6-tetrahydropyridin-3-yl)-1H-imidazol-2-yl)-1H-indazol-6-yl)phenol]",1 to 10 nM,B (B denotes a value between 50 and 100),D (D denotes a ratio between 50 and 100),500 to 1000 ng·h/mL,3.16 to 10 nM,1 to 10 nM,–,0.1 to 1 nM,0.1 to 1 nM,–
CCc1cc(O)ccc1-c1ccc2c(-c3nc(C4=CCN(C5CN(C)C5)C4)c[nH]3)n[nH]c2c1F [Example 202],0.1 to 1 nM,B (B denotes a value between 50 and 100),D (D denotes a ratio between 50 and 100),500 to 1000 ng·h/mL,10 to 31.6 nM,1 to 10 nM,A (A represents a pKi value ≥10 (Ki≤0.1 nM)),0.1 to 1 nM,–,–
CCc1cc(O)ccc1-c1ccc2c(-c3nc(C4=CCN(C5CCC5)CC4)c[nH]3)n[nH]c2c1F [Example 26],0.1 to 1 nM,C (C denotes a value between 9 and 50),E (E denotes a ratio between 30 and 50),< 500 ng·h/mL,10 to 31.6 nM,1 to 10 nM,–,0.1 to 1 nM,0.1 to 1 nM,–
CCc1cc(O)ccc1-c1ccc2c(-c3nc(C4=C[C@@H](COC)NC4)c[nH]3)n[nH]c2c1F [Example 246],1 to 10 nM,C (C denotes a value between 9 and 50),D (D denotes a ratio between 50 and 100),< 500 ng·h/mL,10 to 31.6 nM,10 to 100 nM,–,0.1 to 1 nM,0.1 to 1 nM,–
CCc1cc(O)ccc1-c1ccc2c(-c3nc(C4=CCN(C)CC4)c[nH]3)n[nH]c2c1F [Example 21],0.1 to 1 nM,C (C denotes a value between 9 and 50),D (D denotes a ratio between 50 and 100),< 500 ng·h/mL,3.16 to 10 nM,0.1 to 1 nM,A (A represents a pKi value ≥10 (Ki≤0.1 nM)),–,–,A (A represents a pKi value ≥10 (Ki≤0.1 nM))
"CCc1cc(O)ccc1-c1ccc2c(-c3nc(C4=C[C@H](CO)NC4)c[nH]3)n[nH]c2c1F [Compound 8, (R)-3-ethyl-4-(7-fluoro-3-(4-(5-(hydroxymethyl)-2,5-dihydro-1H-pyrrol-3-yl)-1H-imidazol-2-yl)-1H-indazol-6-yl)phenol]",0.1 to 1 nM,B (B denotes a value between 50 and 100),C (C denotes a ratio between 100 and 200),500 to 1000 ng·h/mL,10 to 31.6 nM,1 to 10 nM,A (A represents a pKi value ≥10 (Ki≤0.1 nM)),0.1 to 1 nM,–,–
CCc1cc(O)ccc1-c1ccc2c(-c3nc(C4=CC[C@H](C)NC4)c[nH]3)n[nH]c2c1F [Example 234],1 to 10 nM,B (B denotes a value between 50 and 100),C (C denotes a ratio between 100 and 200),< 500 ng·h/mL,3.16 to 10 nM,1 to 10 nM,–,–,0.1 to 1 nM,A (A represents a pKi value ≥10 (Ki≤0.1 nM))
"CCc1cc(O)ccc1-c1ccc2c(-c3nc(C4=CCN(CCCO)CC4)c[nH]3)n[nH]c2c1F [Compound 14, 3-ethyl-4-(7-fluoro-3-(4-(1-(3-hydroxypropyl)-1,2,3,6-tetrahydropyridin-4-yl)-1H-imidazol-2-yl)-1H-indazol-6-yl)phenol]",0.1 to 1 nM,C (C denotes a value between 9 and 50),C (C denotes a ratio between 100 and 200),< 500 ng·h/mL,10 to 31.6 nM,1 to 10 nM,–,0.1 to 1 nM,–,–
CCc1cc(O)ccc1-c1ccc2c(-c3nc(C4=CCCN(CCO)C4)c[nH]3)n[nH]c2c1F [Example 44],0.1 to 1 nM,B (B denotes a value between 50 and 100),D (D denotes a ratio between 50 and 100),500 to 1000 ng·h/mL,3.16 to 10 nM,1 to 10 nM,–,0.1 to 1 nM,0.1 to 1 nM,–
CCc1cc(O)ccc1-c1ccc2c(-c3nc(C4=C(C)CNCC4)c[nH]3)n[nH]c2c1F [Example 227],1 to 10 nM,"A (For the Lung Tissue AUC(0-24), A denotes a value between 100 and 200)",C (C denotes a ratio between 100 and 200),500 to 1000 ng·h/mL,10 to 31.6 nM,1 to 10 nM,–,0.1 to 1 nM,0.1 to 1 nM,–
CCc1cc(O)ccc1-c1ccc2c(-c3nc(C4=CCN(C[C@@H]5COCCN5)CC4)c[nH]3)n[nH]c2c1F [Example 189],0.1 to 1 nM,–,–,–,10 to 31.6 nM,1 to 10 nM,–,0.1 to 1 nM,0.1 to 1 nM,–
CCc1cc(O)ccc1-c1ccc2c(-c3nc(C4=CCN(C5COC5)CC4)c[nH]3)n[nH]c2c1 [Example 57],0.1 to 1 nM,–,–,–,10 to 31.6 nM,1 to 10 nM,–,0.1 to 1 nM,0.1 to 1 nM,–
CCc1cc(O)ccc1-c1ccc2c(-c3nc(C4=C[C@H](C)NCC4)c[nH]3)n[nH]c2c1F [Example 299],0.1 to 1 nM,–,–,–,10 to 31.6 nM,0.1 to 1 nM,–,0.1 to 1 nM,0.1 to 1 nM,–
CCc1cc(O)ccc1-c1ccc2c(-c3nc(C4=CC[C@H](C)NC4)c[nH]3)n[nH]c2c1 [Example 230],0.1 to 1 nM,–,–,–,3.16 to 10 nM,1 to 10 nM,A (A represents a pKi value ≥10 (Ki≤0.1 nM)),–,–,A (A represents a pKi value ≥10 (Ki≤0.1 nM))
